Tested on: S100A4 mRNA
Test: S100A4 mRNA expression by qRT-PCR in colon cancer cells
Format: cell-based, human
Method: Total RNA was isolated from 4×10^5 cells plated in a 6-well-plates 24 hour before cells were lyzed with Trizol Reagent (Invitrogen). RNA was extracted with Trizol RNA extraction reagent (Invitrogen) according to the manufacturer's instructions. Quantification of the RNA concentration was performed with Nanodrop (Peqlab) and 50 ng total RNA was reverse transcribed with random hexamers in 10 mM MgCl2; 1× RT-buffer, 250 μM pooled dNTPs, 1 U per μL RNAse inhibitor and 2.5 U per μL MuLV reverse transcriptase (all Applied Biosystems). Reaction occurred at 42° C. for 15 minutes, 99° C. for 5 minutes and subsequent cooling at 5° C. for 5 minutes. The cDNA product was amplified in a total volume of 10 μL in 96-well-plates in the LightCycler 480 (Roche) using the following conditions: 95° C., 10 minutes, followed by 45 cycles of 95° C. for 10 seconds, 61° C. for 30 seconds and 72° C. for 4 seconds. For S100A4 cDNA quantification the following primer and probes were used: forward primer 5′-CTCAGCGCTTCTTCTTTC-3′, reverse primer 5′-GGGTCAGCAGCTCCTTTA-3′, fluorescein isothiocyanate probe 5′-[…]-3′, LCRed640-probe 5′-[…]-3′. For cDNA quantification of the housekeeping gene glucose-6-phosphate dehydrogenase (G6PD) the hG6PDH Roche Kit (Roche Diagnostics, Mannheim, Germany) was used according to manufacturers instructions. Data analysis was performed with LightCycler® 480 Software release 1.5.0 SP3. For each qRT-PCR reaction a mean of the duplicate was calculated. Each mean value of the expressed gene was normalized to the respective mean amount of the G6PD cDNA.
(A) Determination of the cytotoxicity of niclosamide on HCT116 cells. Cells were treated with increasing concentrations of niclosamide for 24 hours and cell viability was measured. (B) Effect of increasing concentrations of niclosamide on S100A4 expression. HCT116 cells were treated with increasing concentrations of niclosamide for 24 hours. S100A4 expression was determined by quantitative reverse-transcription-polymerase chain reaction (qRT-PCR) and immunoblot. (C) Time-dependency of niclosamide effect on S100A4 expression. HCT116 cells were treated with a single dose of 1 μM niclosamide for 24 hours and S100A4 expression was analyzed by qRT-PCR and immunoblot at indicated time points. Black bar indicates the chosen treatment conditions for further experiments. (D) Effect of daily doses of niclosamide on S100A4 expression. HCT116 cells were treated daily with 1 μM niclosamide and S100A4 expression was analyzed by qRT-PCR and immunoblot. Data is given as mean±SD (n>2). Differences in treated groups were compared with the control group by two-sided one-way analysis of variances and Bonferroni post hoc multiple comparison test.
(E) Effect of niclosamide in HCT116-vector and HCT116-S100A4 cells. HCT116-vector and HCT116-S100A4 cells were treated with 1 μM niclosamide for 24 hours and S100A4 expression was analyzed by qRT-PCR and immunoblot. Data is given as mean±SD (n>2). Comparison of niclosamide vs. solvent-treated cells was analyzed with Student's t test.
(A) S100A4 expression under niclosamide treatment. Cells were treated with 1 μM niclosamide for 24 hours. S100A4 expression was analyzed with qRT-PCR and immunoblot. (B) Cell migration under niclosamide treatment. Migration rates of cells treated with 1 μM niclosamide for 24 hours were determined in a Boyden chamber assay values were normalized to solvent-treated SW620 cells. (C) Cell invasion under niclosamide treatment. Cells were seeded onto Matrigel covered transwells and treated with 1 μM niclosamide for 24 hours. Invaded cells in the lower chamber were counted and normalized to solvent-treated SW620 cells. Differences in solvent vs. niclosamide-treated cells were analyzed by Student's t test. Data represent mean±SE of at least two independent experiments each performed in triplicate. (D) Directed migration under niclosamide treatment. Wounds of 300 μM width were set in a 60% confluent monolayer of cells on day 1. […]

For O=C(Nc1ccc([N+](=O)[O-])cc1Cl)c1cc(Cl)ccc1O [niclosamide, 2′,5-dichloro-4′-nitrosalicylanilide], the “S100A4 mRNA” value (DLD-1, 1 μM, 24 h, mRNA barely detectable) was “remained unchanged”, the “S100A4 mRNA expression, mean difference control vs niclosamide” value (HAB-68mut, 1 μM, 24 h) was 0.55 and the “S100A4 mRNA expression, mean (relative to HCT116 control)” value (HAB-68mut, 1 μM, 24 h, control 1.17) was 0.62. The “S100A4 mRNA expression, mean (relative to HCT116 control)” value (HAB-92 wt, 1 μM, 24 h, control 0.03, statistically not significant) was 0.01, the “S100A4 mRNA expression, mean difference control vs niclosamide” value (HAB-92 wt, 1 μM, 24 h, statistically not significant) was 0.02 and the “S100A4 mRNA, mean %” value (HCT116, 1 μM daily for 3 days, 24 hours post-treatment, control 101.9%) was 58.0%. For the same compound, the “S100A4 mRNA, mean %” value (HCT116, 1 μM daily for 3 days, 48 hours post-treatment, control 98.1%) was 44.4%, the “S100A4 mRNA, mean %” value (HCT116, 1 μM daily for 3 days, 72 hours post-treatment, control 100.0%) was 57.9% and the “S100A4 mRNA, mean % of solvent-treated control” value (HCT116, 1 μM daily, 24 hours) was 46.0%. The “S100A4 mRNA, mean % of solvent-treated control” value (HCT116, 1 μM daily, 48 hours) was 44.5%, the “S100A4 mRNA, mean % of solvent-treated control” value (HCT116, 1 μM daily, 72 hours) was 59.5% and the “S100A4 mRNA expression, mean difference control vs niclosamide” value (HCT116, 1 μM, 24 h (relative scale)) was 0.54. For the same compound, the “S100A4 mRNA expression, mean (relative to HCT116 control)” value (HCT116, 1 μM, 24 h, control 1.00) was 0.46, the “S100A4 mRNA, mean % of solvent-treated control” value (HCT116, 1 μM, single dose, 18 hours) was 47.5% and the “S100A4 mRNA, mean % of solvent-treated control” value (HCT116, 1 μM, single dose, 24 h) was 47.4%. For the same compound, the “S100A4 mRNA and protein levels” value (HCT116, 1 μM, single dose, after 30-48 hours) was “returned to the control level”, the “S100A4 mRNA, mean % of solvent-treated control” value (HCT116, 1.5 μM, 24 h) was 39.2% and the “S100A4 mRNA, mean % of solvent-treated control” value (HCT116, 2 μM, 24 h) was 39.1%. For the same compound, the “S100A4 mRNA, mean % of solvent-treated control” value (HCT116, 2.5 μM, 24 h) was 36.7%, the “S100A4 mRNA, mean difference control vs niclosamide” value (HCT116, 24 hours post-treatment) was 43.9% and the “S100A4 mRNA, mean difference control vs niclosamide” value (HCT116, 48 hours post-treatment) was 53.7%. For the same compound, the “S100A4 mRNA, mean difference control vs niclosamide” value (HCT116, 72 hours post-treatment) was 42.1%, the “change in S100A4 expression” value (HCT116, concentrations below 1 μM, 24 h) was “No change” and the “S100A4 mRNA, mean difference control vs niclosamide” value (HCT116-S100A4, 1 μM, 24 h, not statistically significant) was 104.7%. For the same compound, the “S100A4 mRNA, mean %” value (HCT116-S100A4, 1 μM, 24 h, solvent control 717.0%, not statistically significant) was 612.3%, the “S100A4 mRNA, mean % of solvent-treated control” value (HCT116-vector, 1 μM, 24 h) was 57.8% and the “S100A4 mRNA, mean difference control vs niclosamide” value (HCT116-vector, 1 μM, 24 h) was 42.0%. The “S100A4 mRNA, mean difference control vs niclosamide” value (LS174T, 1 μM, 24 h) was 51.9%, the “S100A4 mRNA, mean %” value (LS174T, 1 μM, 24 h, solvent control 65.5%) was 13.5% and the “S100A4 mRNA, mean difference control vs niclosamide” value (SW480, 1 μM, 24 h) was 35.0%. The “S100A4 mRNA, mean %” value (SW480, 1 μM, 24 h, solvent control 41.0%) was 6.0%, the “S100A4 mRNA, mean difference control vs niclosamide” value (SW620, 1 μM, 24 h) was 68.8% and the “S100A4 mRNA, mean %” value (SW620, 1 μM, 24 h, solvent control 100.0%) was 31.2%.
